Legend:
FL hMALT1 enzyme = target: T1, FL hMALT1 enzyme (Homo sapiens, UniProt Q9UDY8); experiment: biochemical;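 note: Cell-free protease assay: enzyme preincubated with compound 30 min at room temperature, then cleavage of fluorogenic Ac-LVSR-AMC substrate (100 µM) tracked by fluorescence (ex 360/em 460 nm)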
T1 sequence (Q9UDY8 1-824): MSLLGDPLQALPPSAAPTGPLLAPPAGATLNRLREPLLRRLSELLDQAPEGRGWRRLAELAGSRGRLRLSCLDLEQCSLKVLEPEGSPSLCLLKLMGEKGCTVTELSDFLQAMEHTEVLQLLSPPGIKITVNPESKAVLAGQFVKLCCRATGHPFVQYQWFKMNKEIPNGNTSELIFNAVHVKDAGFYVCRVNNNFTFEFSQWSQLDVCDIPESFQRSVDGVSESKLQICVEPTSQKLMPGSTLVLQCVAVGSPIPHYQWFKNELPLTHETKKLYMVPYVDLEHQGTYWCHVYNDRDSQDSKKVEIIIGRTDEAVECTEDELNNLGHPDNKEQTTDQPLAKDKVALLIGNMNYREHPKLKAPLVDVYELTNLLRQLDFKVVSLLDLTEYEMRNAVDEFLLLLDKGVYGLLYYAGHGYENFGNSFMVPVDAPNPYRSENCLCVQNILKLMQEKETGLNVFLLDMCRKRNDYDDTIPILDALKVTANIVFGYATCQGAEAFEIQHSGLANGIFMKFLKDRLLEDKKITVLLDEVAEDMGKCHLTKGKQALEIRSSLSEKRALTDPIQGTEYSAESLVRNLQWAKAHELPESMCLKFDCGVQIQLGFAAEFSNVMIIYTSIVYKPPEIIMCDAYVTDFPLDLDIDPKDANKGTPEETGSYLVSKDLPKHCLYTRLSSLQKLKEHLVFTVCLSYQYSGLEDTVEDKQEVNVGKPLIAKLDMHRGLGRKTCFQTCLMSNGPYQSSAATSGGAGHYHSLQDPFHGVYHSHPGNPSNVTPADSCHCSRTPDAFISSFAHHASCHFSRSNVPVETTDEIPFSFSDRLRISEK
Method: MALT1 protease activity was assessed in vitro by measuring the cleavage of a fluorogenic tetrapeptide substrate.
For a higher sensitivity assay, commercially available FL hMALT1 enzyme (Abcam, 1-10 nM) was incubated with substrate (Ac-LVSR-AMC, 100 μM) in reaction buffer comprising 50 mM HEPES (pH7.0), 25 mM KCl, 0.1% (v/v) CHAPS, 1 mM TCEP and 0.7 M sodium citrate.
Test compounds dissolved in DMSO were dispensed into assay plates (384-well, black, shallow ProxiPlates). 7 μl enzyme solution was added and incubated at room temperature for 30 minutes to allow compound binding to occur. 2 μl substrate solution was then added and the fluorescence (excitation 360 nm, emission 460 nm) read every 15 minutes using a suitable plate reader. Final assay DMSO concentration was 1%. […] IC50 values were calculated using GraphPad Prism using a 4-parameter non-linear regression curve fit.

[1] = test system: IL-2 release from stimulated Jurkat cells; experiment: Human IL-2 Release Phenotypic Assay (Assay 3); format: cell-based; conditions: Jurkat cells (clone E6-1), 200 ng/mL PMA + 300 ng/mL ionomycin, IL-2 by ELISA
Procedure, shortened: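 IC50 values were fitted by 4-parameter non-linear regression to IL-2 release from Jurkat E6-1 cells. Those cells were stimulated for 48 h with PMA (200 ng/mL) plus ionomycin (300 ng/mL) after a 30-min compound pre-incubation at half-log doses in 0.5% DMSO. Cells had been plated at 50 000/well overnight at 37° C.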

[2] = target: MALT1-GS-Ub (6-His-hMALT-1 residues 339-715 fused to ubiquitin) (Homo sapiens, UniProt Q9UDY8); experiment: biochemical;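 note: in vitro MALT1 protease assay: enzyme preincubated with compound 30 min at room temperature, then cleavage of fluorogenic Ac-LVSR-AMC substrate (100 µM) followed by fluorescence every 15 min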
Sequence of MALT1-GS-Ub (6-His-hMALT-1 residues 339-715 fused to ubiquitin) (Q9UDY8 with tags, fused parts or gaps limits assumed): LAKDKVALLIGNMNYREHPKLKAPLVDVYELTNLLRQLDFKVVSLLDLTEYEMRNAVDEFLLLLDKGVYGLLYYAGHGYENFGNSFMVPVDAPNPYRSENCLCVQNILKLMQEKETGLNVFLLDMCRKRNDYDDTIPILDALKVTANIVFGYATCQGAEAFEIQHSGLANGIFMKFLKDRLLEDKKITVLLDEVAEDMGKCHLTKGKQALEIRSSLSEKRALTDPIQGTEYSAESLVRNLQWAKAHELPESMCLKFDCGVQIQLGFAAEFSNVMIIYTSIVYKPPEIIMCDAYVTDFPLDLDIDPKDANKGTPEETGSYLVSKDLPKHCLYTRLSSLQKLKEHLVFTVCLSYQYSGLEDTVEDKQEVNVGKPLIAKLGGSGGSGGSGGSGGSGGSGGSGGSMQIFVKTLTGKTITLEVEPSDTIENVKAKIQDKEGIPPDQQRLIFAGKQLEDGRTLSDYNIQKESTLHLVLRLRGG

SMILES: CN(C(=O)CCN1CCCC1=O)[C@@H](c1ccc(NC2Cc3ccccc3C2(C)C)cc1)C(F)(F)F (single isomer, unassigned) [Example 47]
- IC50 (FL hMALT1 enzyme): 110 nM
- IC50 ([1]; 48 hours): 2350 nM
- IC50 [2]: 170 nM

SMILES: CC(=O)N1CC(C)(C(=O)N(C)[C@@H](c2ccc(NC3Cc4ccccc4C3(C)C)cc2)C(F)(F)F)C1 (single isomer, unassigned) [Example 41]
- IC50 (FL hMALT1 enzyme): 19 nM
- IC50 ([1]; Homo sapiens, Jurkat, 48 h): 1040 nM
- IC50 [2]: 220 nM

SMILES: CC(=O)N1CC(F)(C(=O)N(C)[C@@H](c2ccc(NC3Cc4ccccc4C3(C)C)cc2)C(F)(F)F)C1 (single isomer, unassigned) [Example 44]
- IC50 (FL hMALT1 enzyme): 21 nM
- IC50 ([1]; 48 hours): 770 nM
- IC50 [2]: 180 nM

SMILES: CN(C(=O)C1CCS(=O)(=O)CC1)[C@@H](c1ccc(NC2Cc3cc(Cl)ccc3C2(C)C)cc1)C(F)(F)F (single isomer, unassigned) [Example 152]
- IC50 (FL hMALT1 enzyme): 420 nM
- IC50 ([1]; 48 hours): 360 nM
- IC50 [2]: 260 nM

SMILES: CN(C(=O)c1cocn1)[C@@H](c1ccc(NC2Cc3ccccc3C2(C)C)cc1)C(F)(F)F (single isomer, unassigned) [Example 26]
- IC50 (FL hMALT1 enzyme): 700 nM
- IC50 ([1]; 48 hours): 910 nM
- IC50 [2]: 360 nM

SMILES: CN(C(=O)CN1CC(=O)NC1=O)[C@@H](c1ccc(NC2Cc3ccccc3C2(C)C)cc1)C(F)(F)F (single isomer, unassigned) [Example 67]
- IC50 (FL hMALT1 enzyme): 78 nM
- IC50 ([1]; 48 hours): 5970 nM
- IC50 [2]: 450 nM

SMILES: CN([C@@H](c1ccc(NC2Cc3ccccc3C2(C)C)cc1)C(F)(F)F)S(=O)(=O)C1CC1 (single isomer, unassigned) [Example 80]
- IC50 (FL hMALT1 enzyme): 210 nM
- IC50 ([1]; 48 hours): 2240 nM
- IC50 [2]: 270 nM

SMILES: CN(C(=O)C1CCS(=O)(=O)CC1)[C@@H](c1ccc(NC2Cc3cc(Cl)ccc3C2(C)C)cc1)C(F)(F)F (single isomer, unassigned) [Example 153]
- IC50 (FL hMALT1 enzyme): 67 nM
- IC50 ([1]; 48 hours): 120 nM
- IC50 [2]: 190 nM

SMILES: CN(C(=O)C1CCS(=O)(=O)CC1)[C@@H](c1ccc(NC2Cc3ccccc3C2(C)C)cn1)C(F)(F)F (single isomer, unassigned) [Example 78]
- IC50 (FL hMALT1 enzyme): 18 nM
- IC50 ([1]; 48 hours): 156 nM
- IC50 [2]: 280 nM

SMILES: CN(C(=O)N1CCOCC1)[C@@H](c1ccc(N[C@@H]2Cc3ccccc3C2(C)C)cc1)C(F)(F)F (single isomer, unassigned) [Example 13]
- IC50 (FL hMALT1 enzyme): 400 nM
- IC50 ([1]; Homo sapiens, Jurkat, 48 h): 1930 nM
- IC50 [2]: 400 nM

SMILES: CN(C(=O)N1CCS(=O)(=O)CC1)[C@@H](c1ccc(NC2Cc3ccccc3C2(C)C)cc1)C(F)(F)F (single isomer, unassigned) [Example 15]
- IC50 (FL hMALT1 enzyme): 420 nM
- IC50 ([1]; 48 hours): 3100 nM
- IC50 [2]: 290 nM

SMILES: CN(C(=O)N1CCC(O)CC1)[C@@H](c1ccc(NC2Cc3ccccc3C2(C)C)cc1)C(F)(F)F (single isomer, unassigned) [Example 23]
- IC50 (FL hMALT1 enzyme): 330 nM
- IC50 ([1]; 48 hours): 1080 nM
- IC50 [2]: 390 nM

SMILES: CNC(=O)N1CC(C(=O)N(C)[C@@H](c2ccc(NC3Cc4ccccc4C3(C)C)cc2)C(F)(F)F)C1 (single isomer, unassigned) [Example 73]
- IC50 (FL hMALT1 enzyme): 7 nM
- IC50 ([1]; 48 hours): 370 nM
- IC50 [2]: 420 nM

SMILES: CC(=O)NCC(=O)N(C)[C@@H](c1ccc(NC2Cc3ccccc3C2(C)C)cc1)C(F)(F)F (single isomer, unassigned) [Example 40]
- IC50 (FL hMALT1 enzyme): 77 nM
- IC50 ([1]; 48 hours): 1350 nM
- IC50 [2]: 230 nM

SMILES: CN(C(=O)C1CN(S(C)(=O)=O)C1)[C@@H](c1ccc(NC2Cc3ccccc3C2(C)C)cc1)C(F)(F)F (single isomer, unassigned) [Example 69]
- IC50 (FL hMALT1 enzyme): 79 nM
- IC50 ([1]; 48 hours): 920 nM
- IC50 [2]: 280 nM

SMILES: COC1c2ccccc2CC1Nc1ccc([C@H](N(C)C(=O)C2CCS(=O)(=O)CC2)C(F)(F)F)cc1 (single isomer, unassigned) [Example 10]
- IC50 (FL hMALT1 enzyme): 120 nM
- IC50 ([1]; Homo sapiens, Jurkat, 48 h): 1550 nM
- IC50 [2]: 540 nM

SMILES: CN(C(=O)C1CCOCC1)[C@@H](c1ccc(NC2Cc3ccccc3C2(C)C)cc1)C(F)(F)F (single isomer, unassigned) [Example 19]
- IC50 (FL hMALT1 enzyme): 30 nM
- IC50 ([1]; 48 hours): 110 nM
- IC50 [2]: 170 nM

SMILES: CC1(C)c2ccccc2CC1Nc1ccc([C@H](NC(=O)C2CCS(=O)(=O)CC2)C(F)(F)F)cc1 (single isomer, unassigned) [Example 81]
- IC50 (FL hMALT1 enzyme): 800 nM
- IC50 ([1]; Homo sapiens, Jurkat, 48 h): 3860 nM
- IC50 [2]: 1440 nM

SMILES: CN1CC(C(=O)N(C)C(c2ccc(NC3Cc4ccccc4C3(C)C)cn2)C(F)(F)F)C1 (single isomer, unassigned) [Example 92, N-(1-(5-((1,1-Dimethyl-2,3-dihydro-1H-inden-2-yl)amino)pyridin-2-yl)-2,2,2-trifluoroethyl)-N,1-dimethylazetidine-3-carboxamide]
- IC50 (FL hMALT1 enzyme): 280 nM
- IC50 ([1]; Homo sapiens, Jurkat, 48 h): 870 nM
- IC50 [2]: 500 nM

SMILES: CN(C(=O)C1CCS(=O)(=O)CC1)[C@@H](c1ccc(NC2Cc3ccccc3C2(C)C)cn1)C(F)(F)F (single isomer, unassigned) [Example 77]
- IC50 (FL hMALT1 enzyme): 68 nM
- IC50 ([1]; 48 hours): 920 nM
- IC50 [2]: 310 nM

SMILES: CC(=O)N1CC(F)(C(=O)N(C)[C@@H](c2ccc(NC3Cc4ccccc4C3(C)C)cc2)C(F)(F)F)C1 (single isomer, unassigned) [Example 43]
- IC50 (FL hMALT1 enzyme): 62 nM
- IC50 ([1]; 48 hours): 4040 nM
- IC50 [2]: 150 nM

SMILES: CN1CC(C(=O)N(C)C(c2ccc(NC3Cc4ccccc4C3(C)C)nc2)C(F)(F)F)C1 (single isomer, unassigned) [Example 95, N-(1-(6-((1,1-Dimethyl-2,3-dihydro-1H-inden-2-yl)amino)pyridin-3-yl)-2,2,2-trifluoroethyl)-N,1-dimethylazetidine-3-carboxamide]
- IC50 (FL hMALT1 enzyme): 640 nM
- IC50 ([1]; 48 hours): 1300 nM
- IC50 [2]: 580 nM

SMILES: CC(=O)N1CC(C(=O)N(C)[C@@H](c2ccc(NC3Cc4ccccc4C3(C)C)cc2)C(F)(F)F)C1 (single isomer, unassigned) [Example 7]
- IC50 (FL hMALT1 enzyme): 68 nM
- IC50 ([1]; 48 hours): 820 nM
- IC50 [2]: 190 nM

SMILES: CN1CC(C(=O)N(C)[C@@H](c2ccc(NC3Cc4ccccc4C3(C)C)cc2)C(F)(F)F)C1 (single isomer, unassigned) [Example 75]
- IC50 (FL hMALT1 enzyme): 370 nM
- IC50 ([1]; Homo sapiens, Jurkat, 48 h): 820 nM
- IC50 [2]: 250 nM

SMILES: CC1c2ccccc2C(C)C1Nc1ccc([C@H](N(C)C(=O)C2CCS(=O)(=O)CC2)C(F)(F)F)cc1 (stereo partly drawn) [Example 38, N-((1S)-1-(4-((1,3-Dimethyl-2,3-dihydro-1H-inden-2-yl)amino)phenyl)-2,2,2-trifluoroethyl)-N-methyltetrahydro-2H-thiopyran-4-carboxamide 1,1-dioxide]
- IC50 (FL hMALT1 enzyme): 16 nM
- IC50 ([1]; Homo sapiens, Jurkat, 48 h): 560 nM
- IC50 [2]: 210 nM

SMILES: CN(C(=O)CN1CC(=O)NC1=O)[C@@H](c1ccc(NC2Cc3ccccc3C2(C)C)cc1)C(F)(F)F (single isomer, unassigned) [Example 66]
- IC50 (FL hMALT1 enzyme): 20 nM
- IC50 ([1]; 48 hours): 590 nM
- IC50 [2]: 220 nM

SMILES: CC1(C)c2ccccc2CC1Nc1ccc([C@H](NC(=O)C2CCS(=O)(=O)CC2)C(F)(F)F)cc1 (single isomer, unassigned) [Example 82]
- IC50 (FL hMALT1 enzyme): 460 nM
- IC50 ([1]; 48 hours): 2990 nM
- IC50 [2]: 470 nM

SMILES: CNC(=O)N1CC(C(=O)N(C)[C@@H](c2ccc(NC3Cc4ccccc4C3(C)C)cc2)C(F)(F)F)C1 (single isomer, unassigned) [Example 74]
- IC50 (FL hMALT1 enzyme): 18 nM
- IC50 ([1]; 48 hours): 180 nM
- IC50 [2]: 320 nM

SMILES: CN(C(=O)CCO)[C@@H](c1ccc(NC2Cc3ccccc3C2(C)C)cc1)C(F)(F)F (single isomer, unassigned) [Example 34]
- IC50 (FL hMALT1 enzyme): 85 nM
- IC50 ([1]; Homo sapiens, Jurkat, 48 h): 4980 nM
- IC50 [2]: 170 nM

SMILES: CN(C(=O)c1cc[nH]c(=O)c1)[C@@H](c1ccc(NC2Cc3ccccc3C2(C)C)cc1)C(F)(F)F (single isomer, unassigned) [Example 20]
- IC50 (FL hMALT1 enzyme): 240 nM
- IC50 ([1]; Homo sapiens, Jurkat, 48 h): 510 nM
- IC50 [2]: 210 nM

SMILES: CN(C(=O)N1CCC(O)CC1)[C@@H](c1ccc(NC2Cc3ccccc3C2(C)C)cc1)C(F)(F)F (single isomer, unassigned) [Example 22]
- IC50 (FL hMALT1 enzyme): 450 nM
- IC50 ([1]; Homo sapiens, Jurkat, 48 h): 1730 nM
- IC50 [2]: 290 nM

SMILES: CN(C(=O)CN1CCCC1=O)[C@@H](c1ccc(NC2Cc3ccccc3C2(C)C)cc1)C(F)(F)F (single isomer, unassigned) [Example 45]
- IC50 (FL hMALT1 enzyme): 180 nM
- IC50 ([1]; Homo sapiens, Jurkat, 48 h): 730 nM
- IC50 [2]: 240 nM

SMILES: CN(C(=O)C1CN(S(C)(=O)=O)C1)[C@@H](c1ccc(NC2Cc3ccccc3C2(C)C)cc1)C(F)(F)F (single isomer, unassigned) [Example 68]
- IC50 (FL hMALT1 enzyme): 15 nM
- IC50 ([1]; 48 hours): 120 nM
- IC50 [2]: 190 nM
